Measured values taken from ChEMBL document CHEMBL1129551, “All-atom models for the non-nucleoside binding site of HIV-1 reverse transcriptase complexed with inhibitors: a 3D QSAR approach” (J Med Chem, 1996).

Biological target: Human immunodeficiency virus type 1 reverse transcriptase (Human immunodeficiency virus 1, UniProt Q72547)
Assay: Inhibitory activity against HIV-1 reverse transcriptase

Row | IC50 [µM] | SMILES
1 | 5.63 | CCc1nc2n(c1C)-c1cccnc1N(CC)c1ncccc1-2
2 | 3.9 | CCN1c2ncccc2-c2nccn2-c2ccc(N3CC=CCC3)nc21
3 | 12.2 | CCN1c2ncccc2-c2ncc(C)n2-c2c(C)cc(=O)[nH]c21
4 | 2.7 | CCN1c2ncccc2-c2ncc(C)n2-c2ccc(N3CC=CCC3)nc21
